Laboratory results as given in patent US20250320190A1, “Novel Inhibitors of Leucine Carboxyl Methyltransferase-1 (LCMT-1) and Methods of Use Thereof” (Temple University-Of The Commonwealth System of Higher …, priority 2024, published 2025).

Tests used:
[1] = system: MCF7 cells; assay: Colony forming assay; assay type: cell-based, human; details: 50-3.25 μM, one week
Method: (§1) MCF7, MDA-MB-231 and Rosi cells were seeded in 96-well tissue culture plates (Celltreat, Pepperell, Massachusetts) at a density of 90 cells per well (Mayr et al. Int J Mol Sci. 2018; 19(3)). After 24 hours, the media were changed to media containing LB-100 or Compound 2 at various concentrations (50-3.25 μM). Control cells were given fresh media. After one week the media were aspirated and the wells were washed with PBS. Cells were stained with crystal violet solution (0.25 g crystal violet in 20% methanol) for 10 minutes. The wells were washed 6 times with PBS to remove excess crystal violet. Colonies were counted with an ECHO Revolve hybrid microscope at 1.5× magnification. There were ten replicates for each condition.

[2] = system: MDA-MB-231 cells; assay: Colony forming assay; assay type: cell-based, human; details: 50-3.25 μM, one week
Method: as §1

[3] = system: Rosi cells; assay: Colony forming assay; assay type: cell-based, human; details: 50-3.25 μM, one week
Method: as §1

[4] = Plasma protein binding; assay type: in vitro ADME; details: read-out: Plasma Protein Binding (bound fraction) (converted)
Text: There is no cause for concern at this stage since there are multiple strategies and reagents for enhancing aqueous solubility for animal in vivo studies (Savjani, K. T., A. K. Gajjar and J. K. Savjani, 2012, ISRN Pharm 2012: 195727.). […] While target tissue exposure is dependent on free, unbound fractions in the plasma, plasma protein binding can protect compounds from hepatic metabolism. Thus, in vivo metabolism and excretion are often determined by a balance between these two properties. In vivo half-life is a complicated property impacted upon by multiple factors and is difficult to predict. […] While these numbers are somewhat low for a drug candidate, they are acceptable for proof of concept tool molecules which can be given multiple times per day and at higher doses to saturate metabolism.

[5] = system: 501-MEL cells; assay: Cytotoxicity assay (CellTiter 96 AQeous); assay type: cell-based; details: Homo sapiens, 48 hours
Method: (§2) MCF7, MDA-MB-231, 501-MEL, Rosi, A549, SCC-15, SCC-25, UM-SCC-12, UM-SCC-14a, UM-SCC-49 and UM-SCC69 cells were seeded in 96-well tissue culture plates (Corning, New York) at a density of 2.5×10^3 cells/well. After 24 hours, the media were changed to media with LCMT-li (ChemSpace, Monmouth Junction, New Jersey) at various concentrations (0.78-200 μM). Control cells were given fresh media. After 48 hours cell viability was assessed using CellTiter 96® AQeous Non-Radioactive Cell Proliferation Assays (Promega Corporation, Madison Wisconsin). Plates were read after 4 hours with a GloMax® Discover plate reader (Promega Corporation, Madison Wisconsin). The cytotoxicity assays were performed at least twice, each time with eight replicates per condition.
(§3) Statistical analyses were performed with GraphPad Prism software (version 10.4.1). Effective concentrations that inhibited 50% of cells (EC50, log agonist versus response) were estimated with nonlinear fit curves. Absorbance values for cytotoxity assays and relative densities for Western blot assays were compared using Kruskal-Wallis analyses of variance with Dunn's correction for multiple comparisons. For flow cytometric analyses, two-way analyses of variance with Tukey's correction for multiple comparisons were used.

[6] = system: A549 cells; assay: Cytotoxicity assay (CellTiter 96 AQeous); assay type: cell-based; details: Homo sapiens, 48 hours
Method: as §2, §3

[7] = system: MCF7 cells; assay: Cytotoxicity assay (CellTiter 96 AQeous); assay type: cell-based; details: Homo sapiens, 48 hours
Method: as §2, §3

[8] = system: MDA-MB-231 cells; assay: Cytotoxicity assay (CellTiter 96 AQeous); assay type: cell-based; details: Homo sapiens, 48 hours
Method: as §2, §3

[9] = system: Rosi cells; assay: Cytotoxicity assay (CellTiter 96 AQeous); assay type: cell-based; details: Homo sapiens, 48 hours
Method: as §2, §3

[10] = system: SCC-15 cells; assay: Cytotoxicity assay (CellTiter 96 AQeous); assay type: cell-based; details: Homo sapiens, 48 hours
Method: as §2, §3

[11] = system: UM-SCC-12 cells; assay: Cytotoxicity assay (CellTiter 96 AQeous); assay type: cell-based; details: Homo sapiens, 48 hours
Method: as §2, §3

[12] = system: UM-SCC-14a cells; assay: Cytotoxicity assay (CellTiter 96 AQeous); assay type: cell-based; details: Homo sapiens, UMSCC14A, 48 hours
Method: as §2, §3

[13] = system: UM-SCC-49 cells; assay: Cytotoxicity assay (CellTiter 96 AQeous); assay type: cell-based; details: Homo sapiens, 48 hours
Method: as §2, §3

[14] = system: UM-SCC-69 cells; assay: Cytotoxicity assay (CellTiter 96 AQeous); assay type: cell-based; details: Homo sapiens, 48 hours
Method: as §2, §3

[15] = system: SCC-15 cells; assay: Annexin V assay with and without irradiation; assay type: cell-based, human
Method: (§4) Head and neck cancer (HNC) cell lines were used for further analyses. Cells were seeded in 60 mm dishes at a density of 8×10^5 cells/dish. After 24 hours, cells were treated with LCMT-li, radiotherapy or both. Control cells were given fresh media. Because radiosensitization was seen between 2.5-10 μM in SCC-15, SCC-25, UM-SCC-49, and UM-SCC-69, irradiated cells were treated with or without 10 μM LCMT-li as described. Twenty-four hours after treatment, cells were lifted with Accutase and washed twice with PBS (pH 7.4) with 10% FBS. Cells were resuspended in annexin V binding buffer (10 mM HEPES (pH 7.4), 140 mM NaCl and 2.5 mM CaCl2)) and labeled with FITC-anti-Annexin V and 7-AAD (Biolegend, San Diego, California, FITC Annexin V Apoptosis Detection Kit with 7-AAD, catalog #640922). Cell surface annexin V expression was assessed immediately with flow cytometry. Annexin V assays were performed with 12 replicates, 104 cells/replicate.

[16] = system: SCC-25 cells; assay: Annexin V assay with and without irradiation; assay type: cell-based, human; details: alone or in combination with irradiation
Method: as §4

[17] = system: UM-SCC-12 cells; assay: Annexin V assay with and without irradiation; assay type: cell-based, human
Method: as §4

[18] = system: UM-SCC-14a cells; assay: Annexin V assay with and without irradiation; assay type: cell-based, human; details: LCMT-li combined with irradiation
Method: as §4

[19] = system: UM-SCC-49 cells; assay: Annexin V assay with and without irradiation; assay type: cell-based, human; details: LCMT-li, irradiation or both
Method: as §4

[20] = system: UM-SCC-69 cells; assay: Annexin V assay with and without irradiation; assay type: cell-based, human
Method: as §4

[21] = 10 μM LCMT-li with irradiation vs irradiation alone
[22] = LCMT-li monotherapy vs control cells

fraction unbound [4]: 0.029
Compound: COC(=O)c1c(NC(=O)c2ccccc2C)sc(C(=O)Nc2cccc(C)c2)c1C [Compound 2, methyl 4-methyl-2-[(2-methylbenzoyl)amino]-5-[[(3-methylphenyl)amino]carbonyl]-3-thiophenecarboxylate]
clonogenic colony formation [1]: inhibited to a lesser extent | clonogenic colony formation [2]: inhibited colony formation | clonogenic colony formation [3]: inhibited colony formation | EC50 [5]: 60.6 µM | EC50 [6]: 41.4 µM | EC50 [7]: 2.24 µM | EC50 [8]: 3.89 µM | EC50 [9]: 3.16 µM | EC50 [10]: 4.26 µM | EC50 [11]: 209 µM | EC50 [12]: 26.4 µM | EC50 [13]: 4.95 µM | EC50 [14]: 2.49 µM | apoptosis (annexin V) [15, 21]: increased apoptosis in comparison to irradiation alone | apoptosis (annexin V) ([15]; LCMT-li monotherapy vs control cells, 24 hours): increased apoptosis | apoptosis or ferroptosis [16]: did not increase apoptosis or ferroptosis | apoptosis (annexin V) [17, 22]: increased apoptosis | apoptosis (annexin V) ([17]; with irradiation vs irradiation alone): did not increase apoptosis in the presence of irradiation as compared to irradiation alone | programmed cell death [18]: did not increase programmed cell death | apoptosis, necroptosis and ferroptosis [19]: did not differ between the experimental conditions | apoptosis (annexin V) [20, 21]: increased apoptosis in comparison to irradiation alone | apoptosis (annexin V) [20, 22]: increased apoptosis
